SMILES strings stand for the structures.

Common to all, as to format: in vivo
The test system of assay [1] is barnyardgrass (ECHCG; Echinochloa crus-galli (L.) Beauv.). Description: Test H mixtures of compound 1 with diflufenzopyr. Particulars: foliage spray. An excerpt:
(§1) This test evaluated the effect of mixtures of compound 1 with diflufenzopyr on several plant species. Seeds of test plants consisting of large crabgrass (DIGSA, Digitaria sanguinalis (L.) Scop.), lambsquarters (CHEAL, Chenopodium album L.), redroot pigweed (AMARE, Amaranthus retroflexus L.), cocklebur (XANST, Xanthium strumarium L.), barnyardgrass (ECHCG; Echinochloa crus-galli (L.) Beauv.), corn (ZEAMD, Zea mays L. cv. ‘Pioneer 33G26’), scarlet (red) morningglory (IPOCO, Ipomoea coccinea L.), giant foxtail (SETFA, Setaria faberi Herrm.) and velvetleaf (ABUTH, Abutilon theophrasti Medik.) were planted in pots containing Redi-Earth® planting medium (Scotts Company, 14111 Scottslawn Road, Marysville, Ohio 43041) comprising spaghnum peat moss, vermiculite, wetting agent and starter nutrients. Seeds of small-seeded species were planted about 1 cm deep; larger seeds were planted about 2.5 cm deep. Plants were grown in a greenhouse using supplemental lighting to maintain a photoperiod of about 14 hours; daytime and nighttime temperatures were about 25-30° C. and 22-25° C., respectively. Balanced fertilizer was applied through the watering system. The plants were grown for 7 to 11 days so that at time of treatment the plants ranged in height from 2 to 18 cm (1- to 4-leaf stage). Treatments consisted of Compound 1 and diflufenzopyr alone and in combination, suspended or dissolved in an aqueous solvent comprising glycerin and Tween nonionic surfactant and applied as a foliage spray using a volume of 541 L/ha. Each treatment was replicated four times. […] Treated plants and controls were maintained in the greenhouse and watered as needed with care to not wet the foliage for the first 24 hours after treatment. The effects on the plants approximately 3 weeks after treatment were visually compared to untreated controls. Plant response ratings were calculated as the means of the four replicates, based on a scale of 0 to 100 where 0 is no effect and 100 is complete control. Colby's Equation was used to determine the herbicidal effects expected from the mixtures. Colby's Equation (Colby, S. R. “Calculating Synergistic and Antagonistic Responses of Herbicide Combinations,” Weeds, 15(1), pp 20-22 (1967)) calculates the expected additive effect of herbicidal mixtures, and for two active ingredients is of the form: Pa+b=Pa+Pb−(PaPb/100) wherein Pa+b is the percentage effect of the mixture expected from additive contribution of the individual components, • Pa is the observed percentage effect of the first active ingredient at the same use rate as in the mixture, and • Pb is the observed percentage effect of the second active ingredient at the same use rate as in the mixture.

Assay [2] deals with large crabgrass (DIGSA, Digitaria sanguinalis (L.) Scop.). Description: Test H mixtures of compound 1 with diflufenzopyr. The settings on record: foliage spray.
Excerpt: as §1

For assay [3], the system named is corn (ZEAMD, Zea mays L. cv. ‘Pioneer 33G26’). Kind of assay: Test H mixtures of compound 1 with diflufenzopyr. The settings on record: foliage spray.
Excerpt: as §1

Assay [4] deals with lambsquarters (CHEAL, Chenopodium album L.). Kind of assay: Test H mixtures of compound 1 with diflufenzopyr. The settings on record: foliage spray.
Excerpt: as §1

For assay [5], the system named is velvetleaf (ABUTH, Abutilon theophrasti Medik.). Description: Test H mixtures of compound 1 with diflufenzopyr. The settings on record: foliage spray.
Excerpt: as §1

The subject of assay [6] is cocklebur (XANST, Xanthium strumarium L.). Kind of assay: Test H mixtures of compound 1 with diflufenzopyr. The settings on record: foliage spray.
Excerpt: as §1

For assay [7], the system named is redroot pigweed (AMARE, Amaranthus retroflexus L.). Description: Test H mixtures of compound 1 with diflufenzopyr. The settings on record: foliage spray.
Excerpt: as §1

The subject of assay [8] is scarlet (red) morningglory (IPOCO, Ipomoea coccinea L.). Kind of assay: Test H mixtures of compound 1 with diflufenzopyr. Particulars: foliage spray.
Excerpt: as §1

In assay [9] the test system is giant foxtail (SETFA, Setaria faberi Herrm.). Description: Test H mixtures of compound 1 with diflufenzopyr. The settings on record: foliage spray.
Excerpt: as §1

Assay [10] relates to junglerice (ECHCO; Echinochloa colona). Description: Test J mixtures of compound 58 with azimsulfuron, flooded paddy. Particulars: 21 days, scale 0-100. An excerpt:
(§2) This test evaluated the effect of mixtures of compound 58 with azimsulfuron on several plant species. Three plastic pots (ca. 16-cm diameter) per rate were partially filled with sterilized Tama silt loam soil comprising a 35:50:15 ratio of sand, silt and clay and 2.6% organic matter. Separate plantings for each of the three pots were as follows. Seeds from the U.S. of ducksalad (HETLI; Heteranthera limosa), smallflower umbrella sedge (CYPDI; Cyperus difformis) and purple redstem (AMMCO; Ammannia coccinea), were planted into one 16-cm pot for each rate. Seeds from the U.S. of bearded sprangletop (LEFUF; Leptochloa fusca ssp. fascicularis), one stand of 9 or 10 water-seeded rice seedlings (ORYSW; Oryza sativa cv. ‘Japonica-M202’), and one stand of 6 transplanted rice seedlings (ORYSP; Oryza sativa cv. ‘Japonica-M202’) were planted into one 16-cm pot for each rate. Seeds from the U.S. of barnyardgrass (ECHCG; Echinochloa crus-galli), late watergrass (ECOR2; Echinochloa oryzicola), early watergrass (ECHOR; Echinochloa oryzoides) and junglerice (ECHCO; Echinochloa colona) were planted into one 16-cm pot for each rate. Plantings were sequential so that crop and weed species were at the 2.0 to 2.5-leaf stage at time of treatment.
(§3) Potted plants were grown in a greenhouse with day/night temperature settings of 29.5/26.7° C., and supplemental balanced lighting was provided to maintain a 16-hour photoperiod. Test pots were maintained in the greenhouse until test completion.
(§4) At time of treatment, test pots were flooded to 3 cm above the soil surface and then treated by application directly to the paddy water of test compounds formulated in a non-phytotoxic solvent mixture which included a surfactant. The pots were maintained at the 3-cm water depth for the duration of the test. Treatments consisted of compound 58 and azimsulfuron alone and in combination. Effects of treatments on rice and weeds were visually evaluated by comparison to untreated controls after 21 days. Plant response ratings were calculated as the means of the three replicates and are summarized in Table J. The ratings are based on a scale of 0 to 100 where 0 is no effect and 100 is complete control. A dash (-) response means no test result. Colby's Equation was used to determine the herbicidal effects expected from the mixtures.

The subject of assay [11] is transplanted rice seedlings (ORYSP; Oryza sativa cv. ‘Japonica-M202’). The description is as above. Particulars: 21 days, scale 0-100.
Excerpt: as §2, §3, §4

Assay [12] concerns barnyardgrass (ECHCG; Echinochloa crus-galli). The description is as above. Particulars: 21 days, scale 0-100.
Excerpt: as §2, §3, §4

The subject of assay [13] is smallflower umbrella sedge (CYPDI; Cyperus difformis). The description is as above. Particulars: 21 days, scale 0-100.
Excerpt: as §2, §3, §4

The subject of assay [14] is water-seeded rice seedlings (ORYSW; Oryza sativa cv. ‘Japonica-M202’). Described as above. Particulars: 21 days, scale 0-100.
Excerpt: as §2, §3, §4

The subject of assay [15] is ducksalad (HETLI; Heteranthera limosa). Described as above. Particulars: 21 days, scale 0-100.
Excerpt: as §2, §3, §4

Assay [16] concerns bearded sprangletop (LEFUF; Leptochloa fusca ssp. fascicularis). The description is as above. Particulars: 21 days, scale 0-100.
Excerpt: as §2, §3, §4

Assay [17] has as its system purple redstem (AMMCO; Ammannia coccinea). Described as above. The settings on record: 21 days, scale 0-100.
Excerpt: as §2, §3, §4

Assay [18] deals with late watergrass (ECOR2; Echinochloa oryzicola). The assay is described as above. The settings on record: 21 days, scale 0-100.
Excerpt: as §2, §3, §4

Assay [19] relates to early watergrass (ECHOR; Echinochloa oryzoides). Described as above. Particulars: 21 days, scale 0-100.
Excerpt: as §2, §3, §4

The subject of assay [20] is sulfonylurea herbicide-susceptible (SU-susceptible) catchweed bedstraw (GALAP; Galium aparine). Description: Test K postemergence. Particulars: 16 g a.i./ha, 15 days. Here is the method:
(§5) Seeds of plant species selected from sulfonylurea herbicide-susceptible (SU-susceptible) and sulfonylurea herbicide-resistant (SU-resistant) catchweed bedstraw (GALAP; Galium aparine) and wheat (TRZAW; Triticum aestivum) were treated with postemergence applications of test chemicals formulated in a non-phytotoxic solvent mixture which included a surfactant. Plants were treated at the 2-3 leaf stage and 2 whorl stage for wheat and catchweed bedstraw, respectively. Treated plants and controls were maintained in a controlled growth environment for 15 days after which time all species were compared to controls and visually evaluated. Plant response ratings, summarized in Table K, are based on a scale of 0 to 100 where 0 is no effect and 100 is complete control. A dash (-) response means no test result.

Assay [21] relates to wheat (TRZAW; Triticum aestivum). Kind of assay: Test K postemergence. The settings on record: 16 g a.i./ha, 15 days. Here is the method:
as §5

Assay [22] has as its system sulfonylurea herbicide-resistant (SU-resistant) catchweed bedstraw (GALAP; Galium aparine). Description: Test K postemergence. Particulars: 16 g a.i./ha, 15 days. Here is the method: as §5

For the compound `C/C(=N\NC(=O)Nc1cc(F)cc(F)c1)c1ncccc1C(=O)O` [Diflufenzopyr, diflufenzopyr, reference compound], the “Obsd. observed effect (0 to 100 scale)” value in [1] (Diflufenzopyr 12 g a.i./ha) was 5; in assay [1] (Diflufenzopyr 25 g a.i./ha), 10; in assay [1] (Diflufenzopyr 50 g a.i./ha), 23; in assay [2] (Diflufenzopyr 12 g a.i./ha), 0; in assay [2] (Diflufenzopyr 25 g a.i./ha), 1; in assay [2] (Diflufenzopyr 50 g a.i./ha), 8. Besides, the “Obsd. observed effect (0 to 100 scale)” value in [3] (Diflufenzopyr 12 g a.i./ha) was 0; in assay [3] (Diflufenzopyr 25 g a.i./ha) it was 0; in [3] (Diflufenzopyr 50 g a.i./ha) it was 0; in [4] (Diflufenzopyr 12 g a.i./ha) it was 61; in assay [4] (Diflufenzopyr 25 g a.i./ha) it was 76; in assay [4] (Diflufenzopyr 50 g a.i./ha), 80. Besides, the “Obsd. observed effect (0 to 100 scale)” value in assay [5] (Diflufenzopyr 12 g a.i./ha) is listed as 50; in assay [5] (Diflufenzopyr 25 g a.i./ha) it was 78; in [5] (Diflufenzopyr 50 g a.i./ha), 68; in assay [6] (Diflufenzopyr 12 g a.i./ha), 43; in assay [6] (Diflufenzopyr 25 g a.i./ha) it was 60; in assay [6] (Diflufenzopyr 50 g a.i./ha), 68. Also, the “Obsd. observed effect (0 to 100 scale)” value in assay [7] (Diflufenzopyr 12 g a.i./ha) is listed as 73; in assay [7] (Diflufenzopyr 25 g a.i./ha), 91; in assay [7] (Diflufenzopyr 50 g a.i./ha), 95; in assay [8] (Diflufenzopyr 12 g a.i./ha), 77; in [8] (Diflufenzopyr 25 g a.i./ha) it was 83; in [8] (Diflufenzopyr 50 g a.i./ha), 82. Further, the “Obsd. observed effect (0 to 100 scale)” value turned out to be 41 in [9] (Diflufenzopyr 12 g a.i./ha), 58 in assay [9] (Diflufenzopyr 25 g a.i./ha) and 59 in assay [9] (Diflufenzopyr 50 g a.i./ha).
On to `COc1cc(OC)nc(NC(=O)NS(=O)(=O)c2c(-c3nnn(C)n3)cnn2C)n1` [Azimsulfuron], for which the “ECHCO Obsd.” value in assay [10] (Azimsulfuron 2 g a.i./ha alone) was 0; in [10] (Azimsulfuron 4 g a.i./ha alone), 0; in assay [10] (Azimsulfuron 8 g a.i./ha alone), 40. In addition, the “ORYSP Obsd.” value in [11] (Azimsulfuron 2 g a.i./ha alone), in assay [11] (Azimsulfuron 4 g a.i./ha alone) and in [11] (Azimsulfuron 8 g a.i./ha alone) was 0 in each case. Moreover, the “ECHCG Obsd.” value in assay [12] (Azimsulfuron 2 g a.i./ha alone) amounted to 0; in [12] (Azimsulfuron 4 g a.i./ha alone) it was 0; in assay [12] (Azimsulfuron 8 g a.i./ha alone), 30. Moreover, the “CYPDI Obsd.” value in [13] (Azimsulfuron 2 g a.i./ha alone) is given as 95; in [13] (Azimsulfuron 4 g a.i./ha alone), 100; in assay [13] (Azimsulfuron 8 g a.i./ha alone) it was 100. The “ORYSW Obsd.” value in assay [14] (Azimsulfuron 2 g a.i./ha alone) is given as 0; in assay [14] (Azimsulfuron 4 g a.i./ha alone), 0; in [14] (Azimsulfuron 8 g a.i./ha alone), 10. Further, the results for the “HETLI Obsd.” value in [15] (Azimsulfuron 2 g a.i./ha alone), in assay [15] (Azimsulfuron 4 g a.i./ha alone) and in assay [15] (Azimsulfuron 8 g a.i./ha alone) were 30, 30 and 100, respectively. The “LEFUF Obsd.” value in assay [16] (Azimsulfuron 2 g a.i./ha alone), in assay [16] (Azimsulfuron 4 g a.i./ha alone) and in assay [16] (Azimsulfuron 8 g a.i./ha alone) was 0 in each case. The “AMMCO Obsd.” value in assay [17] (Azimsulfuron 2 g a.i./ha alone) came to 0; in assay [17] (Azimsulfuron 4 g a.i./ha alone) it was 0; in assay [17] (Azimsulfuron 8 g a.i./ha alone) it was 95. The “ECOR2 Obsd.” value in [18] (Azimsulfuron 2 g a.i./ha alone) is recorded as 0; in assay [18] (Azimsulfuron 4 g a.i./ha alone), 0; in [18] (Azimsulfuron 8 g a.i./ha alone), 50. For the same compound, the “ECHOR Obsd.” value in assay [19] (Azimsulfuron 2 g a.i./ha alone) amounted to 0; in [19] (Azimsulfuron 4 g a.i./ha alone) it was 0; in [19] (Azimsulfuron 8 g a.i./ha alone) it was 40.
Regarding `COc1nc(C)nc(NC(=O)NS(=O)(=O)c2ccccc2Cl)n1` [Chlorsulfuron, chlorsulfuron, reference compound], the “Plant response rating (0 to 100 scale)” value in [20] amounted to 100; in assay [21], 20; in [22], 5.
